Here are results for 27 compounds from patent publication US20240246966A1, “NEW PYRAZOLO[1,5-a] PYRIMIDINE DERIVATIVES AS SIGMA LIGANDS” (ACONDICIONAMIENTO TARRASENSE, priority 2021, published 2024).

One test addresses T1, Human σ1 Receptor (Homo sapiens, UniProt Q99720).
T1 construct: expressed in transfected cells; host or cells: HEK-293
Briefly: Human σ1 receptor radioligand assay ([3H](+)-pentazocine, transfected HEK-293 membranes). As to conditions: human σ1, [3H](+)-pentazocine 5 nM, binding expressed as Ki, read-out: Binding σ-1. As to the method: Human σ1 Receptor Radioligand Assay
Transfected HEK-293 membranes (7 μg) were incubated with 5 nM of [^3H](+)-pentazocine in assay buffer containing Tris-HCl 50 mM at pH 8. NBS (non-specific binding) was measured by adding 10 μM haloperidol. The binding of the test compound was measured at either one concentration (% inhibition at 1 or 10 μM) or five different concentrations to determine affinity values (Ki). Plates were incubated at 37° C. for 120 minutes. After the incubation period, the reaction mix was then transferred to MultiScreen HTS, FC plates (Millipore), filtered and plates were washed 3 times with ice-cold 10 mM Tris-HCL (pH 7.4). Filters were dried and counted at approximately 40% efficiency in a MicroBeta scintillation counter (Perkin-Elmer) using EcoScint liquid scintillation cocktail.

For a further test, the target named is T2, Human σ2/TMEM97 receptor (Homo sapiens, UniProt Q5BJF2).
T2 construct: expressed in transfected cells; host or cells: HEK-293
T2 sequence (Q5BJF2 whole entry): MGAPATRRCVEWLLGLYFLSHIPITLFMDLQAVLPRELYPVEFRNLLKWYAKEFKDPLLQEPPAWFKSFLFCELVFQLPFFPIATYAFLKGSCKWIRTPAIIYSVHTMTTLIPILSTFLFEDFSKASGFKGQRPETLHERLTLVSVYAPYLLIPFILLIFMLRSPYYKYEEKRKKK
As to the kind of experiment: Binding assay to human σ2/TMEM97 receptor ([3H]-DTG, transfected HEK-293 membranes). As to conditions: human σ2/TMEM97, [3H]-DTG 10 nM, binding expressed as Ki, read-out: Binding σ-2. As to the method: Binding Assay to Human ρ2/TMEM97 Receptor
Transfected HEK-293 membranes (15 μg) were incubated with 10 nM [^3H]-1,3-Di-o-tolylguanidine ( DTG) in assay buffer containing Tris-HCl 50 mM at pH 8.0. NSB (non-specific binding) was measured by adding 10 μM haloperidol. The binding of the test compound was measured at either one concentration (% inhibition at 1 or 10 μM) or five different concentrations to determine affinity values (Ki). Plates were incubated at 25° C. for 120 minutes. After the incubation period, the reaction mix was transferred to MultiScreen HTS, FC plates (Millipore), filtered and washed 3 times with ice-cold 10 mM Tris-HCL (pH 8.0). Filters were dried and counted at approximately 40% efficiency in a MicroBeta scintillation counter (Perkin-Elmer) using EcoScint liquid scintillation cocktail.

Molecules are shown by their SMILES.

T1 sequence (Q99720 whole entry): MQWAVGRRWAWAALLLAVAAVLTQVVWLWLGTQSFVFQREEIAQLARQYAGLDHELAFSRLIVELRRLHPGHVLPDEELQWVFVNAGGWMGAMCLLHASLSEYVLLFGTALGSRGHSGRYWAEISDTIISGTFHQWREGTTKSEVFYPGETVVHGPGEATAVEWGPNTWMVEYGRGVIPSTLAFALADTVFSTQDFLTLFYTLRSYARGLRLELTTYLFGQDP

As to `COCC1CCN(Cc2cnc3c(-c4ccnc(C)c4)cnn3c2)CC1` [Example 25, 6-((4-(Methoxymethyl)piperidin-1-yl)methyl)-3-(2-methylpyridin-4-yl)pyrazolo[1,5-a]pyrimidine], the Ki at Human σ1 Receptor was under 100 nM; on Human σ2/TMEM97 receptor, over 1000 nM.

As for `Cc1cc(-c2cnn3cc(CN4CCC5(CCOCC5)CC4)cnc23)ccn1` [Example 26, 9-((3-(2-Methylpyridin-4-yl)pyrazolo[1,5-a]pyrimidin-6-yl)methyl)-3-oxa-9-azaspiro[5.5]undecane], the Ki was 100 to 500 nM on Human σ1 Receptor and over 1000 nM at Human σ2/TMEM97 receptor.

Take `Cc1cc(-c2cnn3cc(CN4CC5(CCOCC5)C4)cnc23)ccn1` [Example 27, 2-((3-(2-Methylpyridin-4-yl)pyrazolo[1,5-a]pyrimidin-6-yl)methyl)-7-oxa-2-azaspiro[3.5]nonane]: the Ki on Human σ1 Receptor is under 100 nM; on Human σ2/TMEM97 receptor, over 1000 nM.

Regarding `COCC1CCN(Cc2cnc3c(-c4ccnc(C(F)(F)F)c4)cnn3c2)CC1` [Example 28, 6-((4-(Methoxymethyl)piperidin-1-yl)methyl)-3-(2-(trifluoromethyl)pyridin-4-yl)pyrazolo[1,5-a]pyrimidine], the Ki at Human σ1 Receptor was under 100 nM; at Human σ2/TMEM97 receptor it was 500 to 1000 nM.

Regarding `FC(F)(F)c1cc(-c2cnn3cc(CN4CCOCC4)cnc23)ccn1` [Example 29, 4-((3-(2-(Trifluoromethyl)pyridin-4-yl)pyrazolo[1,5-a]pyrimidin-6-yl)methyl)morpholine], the Ki on Human σ1 Receptor and on Human σ2/TMEM97 receptor was over 1000 nM throughout.

Turning to `CCOCC1CCN(Cc2cnc3c(-c4ccnc(C(F)(F)F)c4)cnn3c2)CC1` [Example 30, 6-((4-(Ethoxymethyl)piperidin-1-yl)methyl)-3-(2-(trifluoromethyl)pyridin-4-yl)pyrazolo[1,5-a]pyrimidine], the figures for the Ki at Human σ1 Receptor and at Human σ2/TMEM97 receptor were under 100 nM and 500 to 1000 nM, respectively.

For `FC(F)(F)c1cc(-c2cnn3cc(CN4CCCOCC4)cnc23)ccn1` [Example 31, 4-((3-(2-(Trifluoromethyl)pyridin-4-yl)pyrazolo[1,5-a]pyrimidin-6-yl)methyl)-1,4-oxazepane], the results for the Ki on Human σ1 Receptor and at Human σ2/TMEM97 receptor were under 100 nM and 100 to 500 nM, respectively.

Regarding `FC(F)(F)c1cc(-c2cnn3cc(CN4CCC5(CCOCC5)CC4)cnc23)ccn1` [Example 32, 9-((3-(2-(Trifluoromethyl)pyridin-4-yl)pyrazolo[1,5-a]pyrimidin-6-yl)methyl)-3-oxa-9-azaspiro[5.5]undecane], the values for the Ki on Human σ1 Receptor and at Human σ2/TMEM97 receptor were under 100 nM and 100 to 500 nM, respectively.

On to `FC(F)(F)c1cc(-c2cnn3cc(CN4CC5(CCOCC5)C4)cnc23)ccn1` [Example 33, 2-((3-(2-(Trifluoromethyl)pyridin-4-yl)pyrazolo[1,5-a]pyrimidin-6-yl)methyl)-7-oxa-2-azaspiro[3.5]nonane], for which the Ki on Human σ1 Receptor was under 100 nM; at Human σ2/TMEM97 receptor, over 1000 nM.

For the compound `COC1CCN(Cc2cnc3c(-c4ccnc(C(F)(F)F)c4)cnn3c2)CC1` [Example 34, 6-((4-Methoxypiperidin-1-yl)methyl)-3-(2-(trifluoromethyl)pyridin-4-yl)pyrazolo[1,5-a]pyrimidine], the Ki on Human σ1 Receptor was under 100 nM; at Human σ2/TMEM97 receptor it was over 1000 nM.

Turning to `FC(F)(F)c1cc(-c2cnn3cc(CN4CCN(C5COC5)CC4)cnc23)ccn1` [Example 35, 6-((4-(Oxetan-3-yl)piperazin-1-yl)methyl)-3-(2-(trifluoromethyl)pyridin-4-yl)pyrazolo[1,5-a]pyrimidine], the values for the Ki at Human σ1 Receptor and on Human σ2/TMEM97 receptor were 500 to 1000 nM and over 1000 nM, respectively.

With `OC1CCN(Cc2cnc3c(-c4ccnc(C(F)(F)F)c4)cnn3c2)CC1` [Example 36, 1-((3-(2-(Trifluoromethyl)pyridin-4-yl)pyrazolo[1,5-a]pyrimidin-6-yl)methyl)piperidin-4-ol], the Ki is under 100 nM on Human σ1 Receptor and over 1000 nM at Human σ2/TMEM97 receptor.

With `Cc1nc2c(-c3ccnc(C(F)(F)F)c3)cnn2c(C)c1CN1CCC2(CC1)COC2` [Example 37, 7-((5,7-Dimethyl-3-(2-(trifluoromethyl)pyridin-4-yl)pyrazolo[1,5-a]pyrimidin-6-yl)methyl)-2-oxa-7-azaspiro[3.5]nonane], the results for the Ki on Human σ1 Receptor and at Human σ2/TMEM97 receptor were under 100 nM and 500 to 1000 nM, respectively.

For `FC(F)(F)c1cc(-n2ccc3cc(CN4CCC5(CC4)COC5)cnc32)ccn1` [Example 38, 7-((1-(2-(Trifluoromethyl)pyridin-4-yl)-1H-pyrrolo[2,3-b]pyridin-5-yl)methyl)-2-oxa-7-azaspiro[3.5]nonane], the Ki was under 100 nM on Human σ1 Receptor and 100 to 500 nM on Human σ2/TMEM97 receptor.

On to `COCC1CCN(Cc2cnc3c(ccn3-c3ccnc(C(F)(F)F)c3)c2)CC1` [Example 39, 5-((4-(Methoxymethyl)piperidin-1-yl)methyl)-1-(2-(trifluoromethyl)pyridin-4-yl)-1H-pyrrolo[2,3-b]pyridine], for which the Ki is under 100 nM on Human σ1 Receptor and 100 to 500 nM at Human σ2/TMEM97 receptor.

Take `CCOCC1CCN(Cc2cnc3c(ccn3-c3ccnc(C(F)(F)F)c3)c2)CC1` [Example 40, 5-((4-(Ethoxymethyl)piperidin-1-yl)methyl)-1-(2-(trifluoromethyl)pyridin-4-yl)-1H-pyrrolo[2,3-b]pyridine]: the Ki at Human σ1 Receptor was under 100 nM; on Human σ2/TMEM97 receptor, 100 to 500 nM.

With `COCC1CCN(Cc2cnc3c(ccn3-c3ccc(C(F)(F)F)nc3)c2)CC1` [Example 41, 5-((4-(Methoxymethyl)piperidin-1-yl)methyl)-1-(6-(trifluoromethyl)pyridin-3-yl)-1H-pyrrolo[2,3-b]pyridine], the values for the Ki at Human σ1 Receptor and at Human σ2/TMEM97 receptor were under 100 nM and 100 to 500 nM, respectively.

As to `FC(F)(F)c1ccc(-n2ccc3cc(CN4CCC5(CC4)COC5)cnc32)cn1` [Example 42, 7-((1-(6-(Trifluoromethyl)pyridin-3-yl)-1H-pyrrolo[2,3-b]pyridin-5-yl)methyl)-2-oxa-7-azaspiro[3.5]nonane], the Ki was under 100 nM on Human σ1 Receptor and 100 to 500 nM at Human σ2/TMEM97 receptor.

In the case of `FC(F)(F)c1cc(-n2ccc3cc(CN4CCC5(CCOC5)CC4)cnc32)ccn1` [Example 43, 8-((1-(2-(Trifluoromethyl)pyridin-4-yl)-1H-pyrrolo[2,3-b]pyridin-5-yl)methyl)-2-oxa-8-azaspiro[4.5]decane], the values for the Ki on Human σ1 Receptor and on Human σ2/TMEM97 receptor were under 100 nM and 100 to 500 nM, respectively.

Take `COCC1CCN(Cc2cnc3c(ccn3-c3cccnc3C(F)(F)F)c2)CC1` [Example 44, 5-((4-(Methoxymethyl)piperidin-1-yl)methyl)-1-(2-(trifluoromethyl)pyridin-3-yl)-1H-pyrrolo[2,3-b]pyridine]: the Ki was under 100 nM at Human σ1 Receptor and 100 to 500 nM at Human σ2/TMEM97 receptor.

Regarding `FC(F)(F)c1ncccc1-n1ccc2cc(CN3CCC4(CCOCC4)CC3)cnc21` [Example 45, 9-((1-(2-(Trifluoromethyl)pyridin-3-yl)-1H-pyrrolo[2,3-b]pyridin-5-yl)methyl)-3-oxa-9-azaspiro[5.5]undecane], the Ki at Human σ1 Receptor was under 100 nM; on Human σ2/TMEM97 receptor, 100 to 500 nM.

Take `FC(F)(F)c1cc(-n2ccc3cc(CN4CCC5(CCOCC5)CC4)cnc32)ccn1` [Example 46, 9-((1-(2-(Trifluoromethyl)pyridin-4-yl)-1H-pyrrolo[2,3-b]pyridin-5-yl)methyl)-3-oxa-9-azaspiro[5.5]undecane]: the Ki at Human σ1 Receptor and at Human σ2/TMEM97 receptor was under 100 nM throughout.

With `FC(F)(F)c1cc(-n2ccc3cc(CN4CC5(CCOCC5)C4)cnc32)ccn1` [Example 47, 2-((1-(2-(Trifluoromethyl)53yridine-4-yl)-1H-pyrrolo[2,3-b]53yridine-5-yl)methyl)-7-oxa-2-azaspiro[3.5]nonane], the Ki at Human σ1 Receptor and at Human σ2/TMEM97 receptor was under 100 nM in each case.

For `FC(F)(F)c1ccc(-n2ccc3cc(CN4CCC5(CCOCC5)CC4)cnc32)cn1` [Example 48, 9-((1-(6-(Trifluoromethyl)pyridin-3-yl)-1H-pyrrolo[2,3-b]pyridin-5-yl)methyl)-3-oxa-9-azaspiro[5.5]undecane], the values for the Ki at Human σ1 Receptor and at Human σ2/TMEM97 receptor were under 100 nM and 100 to 500 nM, respectively.

With `COC1CCN(Cc2cnc3c(ccn3-c3ccnc(C(F)(F)F)c3)c2)CC1` [Example 49, 5-((4-Methoxypiperidin-1-yl)methyl)-1-(2-(trifluoromethyl)pyridin-4-yl)-1H-pyrrolo[2,3-b]pyridine], the Ki on Human σ1 Receptor is under 100 nM; on Human σ2/TMEM97 receptor, 500 to 1000 nM.

For the compound `FC(F)(F)c1cc(-n2ccc3cc(CN4CCCOCC4)cnc32)ccn1` [Example 50, 4-((1-(2-(Trifluoromethyl)pyridin-4-yl)-1H-pyrrolo[2,3-b]pyridin-5-yl)methyl)-1,4-oxazepane], the Ki at Human σ1 Receptor is under 100 nM; at Human σ2/TMEM97 receptor, over 1000 nM.

For `COC1CCN(Cc2cnc3c(ccn3-c3ccc(C(F)(F)F)nc3)c2)CC1` [Example 51, 5-((4-Methoxypiperidin-1-yl)methyl)-1-(6-(trifluoromethyl)pyridin-3-yl)-1H-pyrrolo[2,3-b]pyridine], the Ki on Human σ1 Receptor is under 100 nM; on Human σ2/TMEM97 receptor, 500 to 1000 nM.
